Target: T1, HIV-integrase (Human immunodeficiency virus type 1 group M subtype B, UniProt P12497)
T1 construct: Recombinant integrase (0.26 ng) was incubated with the beads
Experiment: HIV-Integrase Inhibition Activity (SPA strand transfer assay)
Format: biochemical
Settings: recombinant integrase, SPA beads, P33 labeled target DNA; read-out: Activity (IC50 class, HIV-integrase inhibition)
Description: HIV-Integrase InhibitionActivity. To evaluate in-vitro activity against HIV-integrase, 5 pmole of biotin labeled substrate DNA was bound to 100 μg of Streptavidin coated PVT SPA beads (Amersham Pharmacia Biotech). Recombinant integrase (0.26 ng) was incubated with the beads for 90 min at 37° C. Unbound enzyme was removed by washing the complex followed by addition of inhibitors and 0.1 fmol of P33 labeled target DNA. The reaction was stopped by adding EDTA to a final concentration of 10 mM. Samples were counted in TopCountNXT (Packard) and the CPM was used as a measure of integration. The reaction condition was as described in A. Engelman and R. Craigie, J. Virol. 69, 5908-5911 (1995). The sequences of substrate and target DNA were described in Nucleic Acid Research 22, 1121-1122 (1994). Activity equal to A refers to a compound having IC50=0.002 to 0.10 μM while B and C denote compounds having IC50=0.1 to 1.0 μM and IC50≧1.0 μM respectively.

Compound | IC50
2-Thiopheneacetic acid, 5- [[[(4,6,7,9-tetrahydro-3-hydroxy- 9,9-dimethyl-4-oxopyrimido[2,1- c][1,4]oxazin-2- yl)carbonyl]amino]methy]- [Example 55] | 100 to 1000 nM
CC1(C)OCCn2c1nc(C(=O)NCc1cc3ccccc3s1)c(O)c2=O [Example 1, Pyrimido[2,1-c][1,4]oxazine-2-carboxamide, N-(benzo[b]thien-2-ylmethyl)-4,6,7,9-tetrahydro-3-hydroxy-9,9-dimethyl-4-oxo-] | 2 to 100 nM
Cc1cc(CNC(=O)c2nc3n(c(=O)c2O)CCOC3(C)C)nn1C [Example 2, Pyrimido[2,1-c][1,4]oxazine-2-carboxamide, N-[(1,5-dimethyl-1H-pyrazol-3-yl)methyl]-4,6,7,9-tetrahydro-3-hydroxy-9,9-dimethyl-4-oxo-] | 100 to 1000 nM
CC1(C)OCCn2c1nc(C(=O)NCc1csc(-c3ccccc3)n1)c(O)c2=O [Example 3, Pyrimido[2,1-c][1,4]oxazine-2-carboxamide, 4,6,7,9-tetrahydro-3-hydroxy-9,9-dimethyl-4-oxo-N-[(2-phenyl-4-thiazolyl)methyl]-] | 100 to 1000 nM
CC1(C)OCCn2c1nc(C(=O)NCc1csc(-c3ccc(Cl)cc3)n1)c(O)c2=O [Example 4, Pyrimido[2,1-c][1,4]oxazine-2-carboxamide, N-[[2-(4-chlorophenyl)-4-thiazolyl]methyl]-4,6,7,9-tetrahydro-3-hydroxy-9,9-dimethyl-4-oxo-] | 100 to 1000 nM
CC1(C)OCCn2c1nc(C(=O)NCc1nccs1)c(O)c2=O [Example 5, Pyrimido[2,1-c][1,4]oxazine-2-carboxamide, 4,6,7,9-tetrahydro-3-hydroxy-9,9-dimethyl-4-oxo-N-(2-thiazolylmethyl)-] | ≥ 1000 nM
CC1(C)OCCn2c1nc(C(=O)NCc1cnn(-c3ccccc3)c1)c(O)c2=O [Example 6, Pyrimido[2,1-c][1,4]oxazine-2-carboxamide, 4,6,7,9-tetrahydro-3-hydroxy-9,9-dimethyl-4-oxo-N-[(1-phenyl-1H-pyrazol-4-yl)methyl]-] | ≥ 1000 nM
Cc1nc(CNC(=O)c2nc3n(c(=O)c2O)CCOC3(C)C)cs1 [Example 7, Pyrimido[2,1-c][1,4]oxazine-2-carboxamide, 4,6,7,9-tetrahydro-3-hydroxy-9,9-dimethyl-N-[(2-methyl-4-thiazolyl)methyl]-4-oxo-] | 100 to 1000 nM
Cc1cc(CNC(=O)c2nc3n(c(=O)c2O)CCOC3(C)C)n(C)n1 [Example 8, Pyrimido[2,1-c][1,4]oxazine-2-carboxamide, N-[(1,3-dimethyl-1H-pyrazol-5-yl)methyl]-4,6,7,9-tetrahydro-3-hydroxy-9,9-dimethyl-4-oxo-] | 100 to 1000 nM
Cc1ccc(CNC(=O)c2nc3n(c(=O)c2O)CCOC3(C)C)n1C [Example 9, Pyrimido[2,1-c][1,4]oxazine-2-carboxamide, N-[(1,5-dimethyl-1H-pyrrol-2-yl)methyl]-4,6,7,9-tetrahydro-3-hydroxy-9,9-dimethyl-4-oxo-] | 2 to 100 nM
Cc1cc(CNC(=O)c2nc3n(c(=O)c2O)CCOC3(C)C)nn1C(C)(C)C [Example 10, Pyrimido[2,1-c][1,4]oxazine-2-carboxamide, N-[[1-(1,1-dimethylethyl)-5-methyl-1H-pyrazol-3-yl]methyl]-4,6,7,9-tetrahydro-3-hydroxy-9,9-dimethyl-4-oxo-] | 2 to 100 nM
Cn1c(CNC(=O)c2nc3n(c(=O)c2O)CCOC3(C)C)cc2ccccc21 [Example 11, Pyrimido[2,1-c][1,4]oxazine-2-carboxamide, 4,6,7,9-tetrahydro-3-hydroxy-9,9-dimethyl-N-[(1-methyl-1H-indol-2-yl)methyl]-4-oxo-] | 2 to 100 nM
CNC(=O)c1ccoc1CNC(=O)c1nc2n(c(=O)c1O)CCOC2(C)C [Example 12, Pyrimido[2,1-c][1,4]oxazine-2-carboxamide, 4,6,7,9-tetrahydro-3-hydroxy-9,9-dimethyl-N-[[3-[(methylamino)carbonyl]-2-furanyl]methyl]-4-oxo-] | 2 to 100 nM
Cn1nc(CNC(=O)c2nc3n(c(=O)c2O)CCOC3(C)C)c2ccccc21 [Example 13, Pyrimido[2,1-c][1,4]oxazine-2-carboxamide, 4,6,7,9-tetrahydro-3-hydroxy-9,9-dimethyl-N-[(1-methyl-1H-indazol-3-yl)methyl]-4-oxo-] | 2 to 100 nM
CC1(C)OCCn2c1nc(C(=O)NCCc1c[nH]c3ccc(F)cc13)c(O)c2=O [Example 14, Pyrimido[2,1-c][1,4]oxazine-2-carboxamide, N-[2-(5-fluoro-1H-indol-3-yl)ethyl]-4,6,7,9-tetrahydro-3-hydroxy-9,9-dimethyl-4-oxo-] | 2 to 100 nM
CC1(C)OCCn2c1nc(C(=O)NCc1cn3ccccc3n1)c(O)c2=O [Example 15, Pyrimido[2,1-c][1,4]oxazine-2-carboxamide, 4,6,7,9-tetrahydro-3-hydroxy-N-(imidazo[1,2-a]pyridin-2-ylmethyl)-9,9-dimethyl-4-oxo-] | 2 to 100 nM
CNC(=O)c1ccc(CNC(=O)c2nc3n(c(=O)c2O)CCOC3(C)C)o1 [Example 16, 3-Hydroxy-9,9-dimethyl-N-((5-(methylcarbamoyl)-2-furyl)methyl)-4-oxo-4,6,7,9-tetrahydropyrimido[2,1-c][1,4]oxazine-2-carboxamider] | 100 to 1000 nM
CC1(C)OCCn2c1nc(C(=O)NCc1ccc(C(=O)N3CCOCC3)o1)c(O)c2=O [Example 17, Pyrimido[2,1-c][1,4]oxazine-2-carboxamide, 4,6,7,9-tetrahydro-3-hydroxy-9,9-dimethyl-N-[[5-(4-morpholinylcarbonyl)-2-furanyl]methyl]-4-oxo-] | ≥ 1000 nM
Cc1cc(CNC(=O)c2nc3n(c(=O)c2O)CCOC3(C)C)nn1C(F)F [Example 18, Pyrimido[2,1-c][1,4]oxazine-2-carboxamide, N-[[1-(difluoromethyl)-5-methyl-1H-pyrazol-3-yl]methyl]-4,6,7,9-tetrahydro-3-hydroxy-9,9-dimethyl-4-oxo-] | 2 to 100 nM
Cc1cc(CNC(=O)c2nc3n(c(=O)c2O)CCOC3(C)C)nn1C(C)C [Example 19, Pyrimido[2,1-c][1,4]oxazine-2-carboxamide, 4,6,7,9-tetrahydro-3-hydroxy-9,9-dimethyl-N-[[5-methyl-1-(1-methylethyl)-1H-pyrazol-3-yl]methyl]-4-oxo-] | 2 to 100 nM
Cc1cc(CNC(=O)c2nc3n(c(=O)c2O)CCOC3(C)C)nn1CCF [Example 20, Pyrimido[2,1-c][1,4]oxazine-2-carboxamide, N-[[1-(2-fluoroethyl)-5-methyl-1H-pyrazol-3-yl]methyl]-4,6,7,9-tetrahydro-3-hydroxy-9,9-dimethyl-4-oxo-] | 2 to 100 nM
Cc1cc(C)n2nc(CNC(=O)c3nc4n(c(=O)c3O)CCOC4(C)C)nc2n1 [Example 21, Pyrimido[2,1-c][1,4]oxazine-2-carboxamide, N-[(5,7-dimethyl[1,2,4]triazolo[1,5-a]pyrimidin-2-yl)methyl]-4,6,7,9-tetrahydro-3-hydroxy-9,9-dimethyl-4-oxo-] | ≥ 1000 nM
CC1(C)OCCn2c1nc(C(=O)NCc1nc3ccccc3[nH]1)c(O)c2=O [Example 22, Pyrimido[2,1-c][1,4]oxazine-2-carboxamide, N-(1H-benzimidazol-2-ylmethyl)-4,6,7,9-tetrahydro-3-hydroxy-9,9-dimethyl-4-oxo-] | ≥ 1000 nM
Cc1ncsc1CNC(=O)c1nc2n(c(=O)c1O)CCOC2(C)C [Example 23, Pyrimido[2,1-c][1,4]oxazine-2-carboxamide, 4,6,7,9-tetrahydro-3-hydroxy-9,9-dimethyl-N-[(4-methyl-5-thiazolyl)methyl]-4-oxo-] | ≥ 1000 nM
Cc1nc(C)c(CNC(=O)c2nc3n(c(=O)c2O)CCOC3(C)C)s1 [Example 24, Pyrimido[2,1-c][1,4]oxazine-2-carboxamide, N-[(2,4-dimethyl-5-thiazolyl)methyl]-4,6,7,9-tetrahydro-3-hydroxy-9,9-dimethyl-4-oxo-] | 2 to 100 nM
Cn1cc(CNC(=O)c2nc3n(c(=O)c2O)CCOC3(C)C)nn1 [Example 25, Pyrimido[2,1-c][1,4]oxazine-2-carboxamide, 4,6,7,9-tetrahydro-3-hydroxy-9,9-dimethyl-N-[(1-methyl-1H-1,2,3-triazol-4-yl)methyl]-4-oxo-] | ≥ 1000 nM
Cn1cc(CN(Cc2cn(C)nn2)C(=O)c2nc3n(c(=O)c2O)CCOC3(C)C)nn1 [Example 26, Pyrimido[2,1-c][1,4]oxazine-2-carboxamide, 4,6,7,9-tetrahydro-3-hydroxy-9,9-dimethyl-N,N-bis[(1-methyl-1H-1,2,3-triazol-4-yl)methyl]-4-oxo-] | ≥ 1000 nM
CC1(C)OCCn2c1nc(C(=O)NCc1ccc(Cc3ccccc3)o1)c(O)c2=O [Example 27, Pyrimido[2,1-c][1,4]oxazine-2-carboxamide, 4,6,7,9-tetrahydro-3-hydroxy-9,9-dimethyl-4-oxo-N-[[5-(phenylmethyl)-2-furanyl]methyl]] | 2 to 100 nM
CC1(C)OCCn2c1nc(C(=O)NCc1cccs1)c(O)c2=O [Example 28, Pyrimido[2,1-c][1,4]oxazine-2-carboxamide, 4,6,7,9-tetrahydro-3-hydroxy-9,9-dimethyl-4-oxo-N-(2-thienylmethyl)-] | 2 to 100 nM
Cc1ccc(CNC(=O)c2nc3n(c(=O)c2O)CCOC3(C)C)s1 [Example 29, Pyrimido[2,1-c][1,4]oxazine-2-carboxamide, 4,6,7,9-tetrahydro-3-hydroxy-9,9-dimethyl-N-[(5-methyl-2-thienyl)methyl]-4-oxo-] | 2 to 100 nM
